Test results reported in patent US6569996B1, “Antibody that specifically binds to the cadherin-5 cell adhesion recognition sequence” (Adherex Technologies, Inc., priority 1998, dated 2003).

Experiments:
[1] = test system: MDA-MB-231 human breast cancer cells; assay: Disruption of human breast cancer cell adhesion (phase contrast microscopy); format: cell-based; details: 100 μl of 10 mg/ml peptide stock added to 1 ml DMEM containing 5% serum; for cell morphology and attachment to the substratum: after 24 hours, cells express cadherin-11 (OB-cadherin) but not N-cadherin or E-cadherin
Protocol: MDA-MB-231 human breast cancer cells (Lombardi Cancer Research Center, Washington, D.C.) were used in these experiments. They express cadherin-11 (also known as OB-cadherin) but not N-cadherin or E-cadherin. The cells were plated (˜50.000 cells) on glass coverslips and cultured for 24 hours in DMEM containing 5% serum. Peptides (N-Ac-IFVIDDKSG-NH2 (SEQ ID NO:85) and H-IFVIDDKSG-OH (SEQ ID NO:85)) were dissolved in sterile water (10 mg/ml), and 100 μl of each peptide stock solution was added to 1 ml of DMEM containing 5% serum. Control cells had 100 μl of water added to the medium. Cells were monitored by phase contrast microscopy. After 24 hours cells were fixed in formaldehyde. […] The amino acid sequence of this peptide is identical to that which is found in the first extracellular domain of OB-cadherin.

[2] = test system: Human umbilical vein endothelial cells; assay: Disruption of endothelial cell adhesion (VE-cadherin immunolabeling); format: cell-based
Protocol: Human umbilical vein endothelial cells were cultured using standard procedures (see Ichikawa et al., Amer. J. Physiol. 273 (Gastrointest. Liver Physiol. 36): […], 1997). Cells were maintained in EGM (Clonetics, San Diego, Calif.) and used at P2 for all experiments. Endothelial identity was established by Dil-LDL and factor VIII staining.
The cells were cultured on glass coverslips. Monolayers were exposed to peptides at a concentration of 75 μg/mL for 60 minutes. The cells were then fixed with 95% ethanol for 30 minutes at 4° C., followed by acetone for one minute and left to air dry at room temperature. Primary antibody for VE-cadherin (Immunotech, MarseiIles, France; 1:250) was added for one hour at 37° C. Coverslips were then washed with 0.1% milk/PBS solution three times for five minutes each. Secondary antibody (1:250), goat anti-rabbit FITC (Zymed, San Francisco, Calif.) was incubated at 37° C. for one hour. Coverslips were again washed with 0.1% milk/PBS solution three times for five minutes each. Coverslips were mounted with anti-quenching solution (1 mg/mL phenylenediamine (Sigma, St. Louis, Mo.) in 50% glycerol, 50% PBS). All photographs were taken at 400× and 1000× with exposure times of 12 seconds.

Row | Substance | cell morphology and attachment to the substratum [1] | effect on cell adhesion ([1]; 24 hours) | activity relative to similar peptide without the N- and C-terminal functional groups ([2]; 75 μg/mL for 60 minutes, comparison with H-VFRVDAETGD-OH) | effect on endothelial cell adhesion ([2]; 75 μg/mL peptide for 60 minutes, monolayers on glass coverslips, VE-cadherin immunolabel, 400× and 1000×)
1 | H-IFVIDDKSG-OH | remained flattened and well-attached to the substratum | – | – | –
2 | N-Ac-IFVIDDKSG-NH2 | rounded up from each other and were not well-attached to the substratum | interferes with cell adhesion | – | –
3 | N-Ac-VFRVDAETGD-NH2 | – | – | substantially greater | disrupts endothelial cell adhesion
